Test results as given in ChEMBL document CHEMBL1268847, “Discovery of orally bioavailable imidazo[1,2-a]pyrazine-based Aurora kinase inhibitors” (Bioorg Med Chem Lett, 2010).
Values after ≈ are worked out from the molar mass of the structure shown.

Key:
Canis familiaris [1] = assay: AUC (0-infinity) in dog at 10 mg/kg, po; type: ADME, organism-based, Canis lupus familiaris, Plasma; parameters: time infinity, dose 10 mg/kg, route oral; settings: in vivo
[2] = Volume of distribution at steady state in rat at 10 mg/kg, iv; type: ADME, organism-based; parameters: dose 10 mg/kg, route intravenous; settings: in vivo, read-out: Vdss
[3] = Half life in mouse at 3 mg/kg, iv; type: ADME, organism-based; parameters: dose 3 mg/kg, route intravenous; settings: in vivo
[4] = target: Tyrosine-protein kinase JAK2 (Homo sapiens, UniProt O60674); assay: Inhibition of JAK2
Aurora kinase B = Aurora kinase B (Homo sapiens, UniProt Q96GD4); assay: Inhibition of Aurora B
[5] = target: Tyrosine-protein kinase Lck (Homo sapiens, UniProt P06239); assay: Inhibition of LCK
[6] = AUC (0-infinity) in rat at 10 mg/kg, iv; type: ADME, organism-based; parameters: time infinity, dose 10 mg/kg, route intravenous; settings: plasma
A2780 [7] = assay: Antitumor activity against human A2780 cells assessed as inhibition of cell growth; type: functional, cell-based
[8] = Solubility in 20 mM acetate buffer at pH 4.0; type: physicochemical
[9] = Inhibition of Aurora kinase assessed as reduction histone H3 Ser10 phosphorylation by cell based assay
[10] = Oral bioavailability in mouse at 50 mg/kg, po; type: ADME, organism-based; settings: in vivo
[11] = target: Mitogen-activated protein kinase 1 (Homo sapiens, UniProt P28482); assay: Inhibition of ERK2
[12] = Clearance in rat at 10 mg/kg, iv; type: ADME, organism-based; parameters: dose 10 mg/kg, route intravenous; settings: in vivo
A2780 [13] = assay: Antitumor activity against human A2780 cells xenografted in nu/nu mouse assessed as tumor growth inhibition administered twice daily for 3 or 5 days; type: functional, cell-based
Canis familiaris [14] = assay: AUC (0-infinity) in dog at 1 mg/kg, iv; type: ADME, organism-based, Canis lupus familiaris, Plasma; parameters: time infinity, dose 1 mg/kg, route intravenous; settings: in vivo
Canis familiaris [15] = assay: Volume of distribution at steady state in dog at 1 mg/kg, iv; type: ADME, organism-based, Canis lupus familiaris; parameters: dose 1 mg/kg, route intravenous; settings: in vivo
[16] = target: T1, Interleukin-1 receptor-associated kinase 4 (Homo sapiens, UniProt Q9NWZ3); assay: Inhibition of IRK4
T1 sequence (Q9NWZ3 whole entry): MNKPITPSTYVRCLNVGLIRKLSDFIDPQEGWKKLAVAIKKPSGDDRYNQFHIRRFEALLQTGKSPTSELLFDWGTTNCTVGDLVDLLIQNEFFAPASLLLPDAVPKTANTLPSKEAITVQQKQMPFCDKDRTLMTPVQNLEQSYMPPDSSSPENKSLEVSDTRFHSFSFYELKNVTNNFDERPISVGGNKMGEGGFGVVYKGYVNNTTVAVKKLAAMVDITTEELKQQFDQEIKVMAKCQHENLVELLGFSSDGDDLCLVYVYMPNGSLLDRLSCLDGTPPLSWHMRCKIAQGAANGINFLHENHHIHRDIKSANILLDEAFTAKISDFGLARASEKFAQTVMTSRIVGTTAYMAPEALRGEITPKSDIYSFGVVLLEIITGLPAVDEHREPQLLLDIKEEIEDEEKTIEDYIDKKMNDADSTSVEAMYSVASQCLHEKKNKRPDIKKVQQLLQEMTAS

[17] = AUC (0-6 hrs) in rat at 10 mg/kg, po; type: ADME, organism-based; parameters: time < 6 hr, dose 10 mg/kg, route oral; settings: plasma
Canis familiaris [18] = assay: Half life in dog at 1 mg/kg, iv; type: ADME, organism-based, Canis lupus familiaris; parameters: dose 1 mg/kg, route intravenous; settings: in vivo
[19] = target: T2, Serine/threonine-protein kinase Chk1 (Homo sapiens, UniProt O14757); assay: Inhibition of CHK1
T2 sequence (O14757 whole entry): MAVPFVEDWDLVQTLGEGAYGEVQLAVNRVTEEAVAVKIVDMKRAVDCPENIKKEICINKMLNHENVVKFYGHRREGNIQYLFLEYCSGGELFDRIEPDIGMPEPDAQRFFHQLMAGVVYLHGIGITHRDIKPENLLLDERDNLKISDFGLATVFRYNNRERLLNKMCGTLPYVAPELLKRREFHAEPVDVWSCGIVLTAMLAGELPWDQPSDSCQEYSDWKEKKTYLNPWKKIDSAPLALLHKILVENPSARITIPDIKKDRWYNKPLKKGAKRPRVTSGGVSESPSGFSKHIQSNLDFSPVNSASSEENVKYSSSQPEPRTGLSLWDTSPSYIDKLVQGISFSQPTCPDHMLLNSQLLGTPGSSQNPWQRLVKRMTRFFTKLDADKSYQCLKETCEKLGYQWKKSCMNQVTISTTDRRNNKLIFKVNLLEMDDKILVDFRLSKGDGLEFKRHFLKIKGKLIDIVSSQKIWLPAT

[20] = Clearance in mouse at 3 mg/kg, iv; type: ADME, organism-based; parameters: dose 3 mg/kg, route intravenous; settings: in vivo
Canis familiaris [21] = assay: Oral bioavailability in dog at 10 mg/kg, po; type: ADME, organism-based, Canis lupus familiaris; settings: in vivo
Aurora kinase A = target: T3, Aurora kinase A (Homo sapiens, UniProt O14965); assay: Inhibition of Aurora A
T3 sequence (O14965 whole entry): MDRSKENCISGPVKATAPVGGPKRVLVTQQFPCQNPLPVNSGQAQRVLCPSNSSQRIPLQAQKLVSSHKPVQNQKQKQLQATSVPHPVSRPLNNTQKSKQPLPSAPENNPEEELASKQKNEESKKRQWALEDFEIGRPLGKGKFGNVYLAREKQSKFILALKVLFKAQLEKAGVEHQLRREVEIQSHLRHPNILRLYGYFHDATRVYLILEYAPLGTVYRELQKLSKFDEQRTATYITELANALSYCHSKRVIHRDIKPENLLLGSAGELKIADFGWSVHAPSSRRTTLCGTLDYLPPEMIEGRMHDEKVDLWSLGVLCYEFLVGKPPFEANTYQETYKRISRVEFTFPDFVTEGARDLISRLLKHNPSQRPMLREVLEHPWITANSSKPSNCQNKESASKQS

[22] = Volume of distribution at steady state in mouse at 3 mg/kg, iv; type: ADME, organism-based; parameters: dose 3 mg/kg, route intravenous; settings: in vivo, read-out: Vdss
A2780 [23] = assay: Antitumor activity against human A2780 cells xenografted in nu/nu mouse assessed as tumor growth inhibition at 45 mg/kg, po bid for 5 days relative to untreated control; type: functional; settings: A2780, 120 h, read-out: TGI
[24] = AUC (0-infinity) in mouse at 50 mg/kg, po; type: ADME, organism-based; parameters: time infinity, dose 50 mg/kg, route oral; settings: plasma
A2780 [25] = assay: Antitumor activity against human A2780 cells assessed as inhibition of cell survival; type: functional, cell-based
A2780 [26] = assay: Antitumor activity against human A2780 cells xenografted in nu/nu mouse assessed as tumor growth inhibition at 90 mg/kg, po bid for 3 days relative to untreated control; type: functional; settings: A2780, 72 h, read-out: TGI
[27] = target: Ribosomal protein S6 kinase alpha-3 (Homo sapiens, UniProt P51812); assay: Inhibition of RSK2
[28] = Half life in rat at 10 mg/kg, iv; type: ADME, organism-based; parameters: dose 10 mg/kg, route intravenous; settings: in vivo
[29] = target: Vascular endothelial growth factor receptor 2 (Homo sapiens, UniProt P35968); assay: Inhibition of VEGFR2
[30] = AUC (0-infinity) in mouse at 3 mg/kg, iv; type: ADME, organism-based; parameters: time infinity, dose 3 mg/kg, route intravenous; settings: plasma
[31] = Oral bioavailability in rat at 30 mg/kg, po; type: ADME, organism-based; settings: in vivo
A2780 [32] = assay: Antitumor activity against human A2780 cells xenografted in nu/nu mouse assessed as tumor growth inhibition at 67.5 mg/kg, po bid for 3 days relative to untreated control; type: functional; settings: A2780, 72 h, read-out: TGI
[33] = AUC (0-infinity) in rat at 30 mg/kg, po; type: ADME, organism-based; parameters: time infinity, dose 30 mg/kg, route oral; settings: plasma

Ribosomal protein S6 kinase alpha-3, sequence (P51812 whole entry): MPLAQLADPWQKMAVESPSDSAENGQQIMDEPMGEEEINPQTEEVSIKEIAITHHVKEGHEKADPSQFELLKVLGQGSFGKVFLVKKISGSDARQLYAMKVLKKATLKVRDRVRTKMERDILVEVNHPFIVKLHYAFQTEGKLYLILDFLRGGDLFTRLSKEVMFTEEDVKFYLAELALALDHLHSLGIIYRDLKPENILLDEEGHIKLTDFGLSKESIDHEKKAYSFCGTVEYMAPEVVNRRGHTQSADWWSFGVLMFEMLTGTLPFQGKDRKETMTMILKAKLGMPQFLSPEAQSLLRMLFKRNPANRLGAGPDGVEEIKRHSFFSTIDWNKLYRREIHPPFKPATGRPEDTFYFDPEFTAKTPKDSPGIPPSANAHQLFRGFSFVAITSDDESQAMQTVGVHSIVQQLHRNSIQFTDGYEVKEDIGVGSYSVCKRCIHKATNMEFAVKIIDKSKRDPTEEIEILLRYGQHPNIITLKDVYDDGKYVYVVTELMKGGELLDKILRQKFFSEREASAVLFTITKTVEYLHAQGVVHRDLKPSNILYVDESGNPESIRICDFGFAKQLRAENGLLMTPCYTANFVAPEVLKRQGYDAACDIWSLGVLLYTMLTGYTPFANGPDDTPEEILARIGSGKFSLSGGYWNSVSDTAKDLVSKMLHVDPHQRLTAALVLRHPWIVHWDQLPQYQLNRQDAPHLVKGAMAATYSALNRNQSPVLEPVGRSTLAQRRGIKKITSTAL
Tyrosine-protein kinase Lck, sequence (P06239 whole entry): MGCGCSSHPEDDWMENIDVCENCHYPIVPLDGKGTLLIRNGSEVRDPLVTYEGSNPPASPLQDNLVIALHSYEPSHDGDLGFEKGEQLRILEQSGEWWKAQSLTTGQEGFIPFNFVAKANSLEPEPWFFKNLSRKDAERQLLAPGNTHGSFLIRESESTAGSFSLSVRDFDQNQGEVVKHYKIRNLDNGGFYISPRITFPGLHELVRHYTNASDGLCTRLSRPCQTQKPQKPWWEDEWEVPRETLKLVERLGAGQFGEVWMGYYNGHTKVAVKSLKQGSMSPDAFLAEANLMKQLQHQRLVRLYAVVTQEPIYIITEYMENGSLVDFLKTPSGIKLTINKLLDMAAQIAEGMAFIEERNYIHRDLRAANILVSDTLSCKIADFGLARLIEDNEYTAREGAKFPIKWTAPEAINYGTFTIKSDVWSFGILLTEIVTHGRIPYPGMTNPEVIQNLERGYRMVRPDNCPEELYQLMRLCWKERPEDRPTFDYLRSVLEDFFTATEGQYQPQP
Vascular endothelial growth factor receptor 2, sequence (P35968 whole entry): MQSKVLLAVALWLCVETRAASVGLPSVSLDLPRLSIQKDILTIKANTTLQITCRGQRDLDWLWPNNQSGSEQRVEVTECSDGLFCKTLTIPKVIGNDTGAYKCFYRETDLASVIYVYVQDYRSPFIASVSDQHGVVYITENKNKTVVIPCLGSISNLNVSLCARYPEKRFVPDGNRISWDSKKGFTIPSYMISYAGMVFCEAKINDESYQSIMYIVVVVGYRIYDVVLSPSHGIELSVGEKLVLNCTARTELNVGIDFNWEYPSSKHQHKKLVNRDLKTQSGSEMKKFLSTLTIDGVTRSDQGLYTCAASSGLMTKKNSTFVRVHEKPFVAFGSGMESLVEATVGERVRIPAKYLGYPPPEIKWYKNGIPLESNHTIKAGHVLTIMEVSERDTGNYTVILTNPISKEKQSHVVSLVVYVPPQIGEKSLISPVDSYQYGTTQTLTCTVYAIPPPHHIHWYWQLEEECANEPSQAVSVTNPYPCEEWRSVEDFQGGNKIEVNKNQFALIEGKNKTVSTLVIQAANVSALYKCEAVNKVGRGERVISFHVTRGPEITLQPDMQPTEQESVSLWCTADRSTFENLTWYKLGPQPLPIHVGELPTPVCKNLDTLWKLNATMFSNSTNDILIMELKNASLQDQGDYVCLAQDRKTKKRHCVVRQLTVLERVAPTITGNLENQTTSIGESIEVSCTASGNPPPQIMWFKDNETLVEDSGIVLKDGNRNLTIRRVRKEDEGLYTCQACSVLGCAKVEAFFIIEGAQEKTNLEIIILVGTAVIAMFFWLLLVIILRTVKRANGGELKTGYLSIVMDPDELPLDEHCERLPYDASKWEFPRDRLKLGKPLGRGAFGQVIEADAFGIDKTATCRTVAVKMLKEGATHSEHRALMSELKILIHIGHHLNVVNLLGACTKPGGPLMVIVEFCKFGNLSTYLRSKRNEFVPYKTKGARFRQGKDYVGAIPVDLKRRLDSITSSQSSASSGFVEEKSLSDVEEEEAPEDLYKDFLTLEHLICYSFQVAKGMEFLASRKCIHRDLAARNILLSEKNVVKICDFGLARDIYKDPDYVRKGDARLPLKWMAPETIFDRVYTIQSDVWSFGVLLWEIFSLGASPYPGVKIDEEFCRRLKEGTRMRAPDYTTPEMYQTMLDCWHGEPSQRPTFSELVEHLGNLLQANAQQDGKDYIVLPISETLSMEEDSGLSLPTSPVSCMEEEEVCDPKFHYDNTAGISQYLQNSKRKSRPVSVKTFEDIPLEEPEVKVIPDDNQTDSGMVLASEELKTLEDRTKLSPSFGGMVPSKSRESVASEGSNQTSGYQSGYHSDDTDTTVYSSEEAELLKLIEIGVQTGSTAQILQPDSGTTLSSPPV
Tyrosine-protein kinase JAK2, sequence (O60674 whole entry): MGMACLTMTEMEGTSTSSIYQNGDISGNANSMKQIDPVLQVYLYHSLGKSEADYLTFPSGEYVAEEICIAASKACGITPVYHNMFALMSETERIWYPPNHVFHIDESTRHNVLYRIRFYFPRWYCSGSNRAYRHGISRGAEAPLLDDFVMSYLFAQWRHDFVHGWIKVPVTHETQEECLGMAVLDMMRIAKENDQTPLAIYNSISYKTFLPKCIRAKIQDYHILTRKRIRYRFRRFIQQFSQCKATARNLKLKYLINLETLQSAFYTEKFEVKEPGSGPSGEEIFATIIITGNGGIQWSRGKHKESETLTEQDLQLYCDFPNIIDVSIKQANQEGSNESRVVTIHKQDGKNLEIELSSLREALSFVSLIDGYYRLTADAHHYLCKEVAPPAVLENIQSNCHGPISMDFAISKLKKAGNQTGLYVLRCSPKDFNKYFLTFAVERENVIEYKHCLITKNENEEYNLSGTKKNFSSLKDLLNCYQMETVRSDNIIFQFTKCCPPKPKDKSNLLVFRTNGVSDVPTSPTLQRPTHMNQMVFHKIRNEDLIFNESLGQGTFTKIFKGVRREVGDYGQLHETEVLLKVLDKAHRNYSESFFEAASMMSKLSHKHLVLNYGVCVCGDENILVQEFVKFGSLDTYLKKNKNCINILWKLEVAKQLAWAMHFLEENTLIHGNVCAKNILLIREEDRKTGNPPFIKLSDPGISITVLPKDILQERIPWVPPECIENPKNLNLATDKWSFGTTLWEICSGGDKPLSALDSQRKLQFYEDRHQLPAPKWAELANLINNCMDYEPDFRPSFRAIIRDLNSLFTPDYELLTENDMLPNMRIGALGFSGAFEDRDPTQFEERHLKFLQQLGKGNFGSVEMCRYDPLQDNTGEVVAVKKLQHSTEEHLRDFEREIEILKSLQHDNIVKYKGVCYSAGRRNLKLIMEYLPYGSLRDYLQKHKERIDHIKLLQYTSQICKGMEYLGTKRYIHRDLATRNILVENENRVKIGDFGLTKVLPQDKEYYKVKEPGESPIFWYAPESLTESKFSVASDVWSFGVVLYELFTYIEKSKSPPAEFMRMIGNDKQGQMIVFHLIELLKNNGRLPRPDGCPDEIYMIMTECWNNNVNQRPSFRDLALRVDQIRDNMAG
Aurora kinase B, sequence (Q96GD4 whole entry): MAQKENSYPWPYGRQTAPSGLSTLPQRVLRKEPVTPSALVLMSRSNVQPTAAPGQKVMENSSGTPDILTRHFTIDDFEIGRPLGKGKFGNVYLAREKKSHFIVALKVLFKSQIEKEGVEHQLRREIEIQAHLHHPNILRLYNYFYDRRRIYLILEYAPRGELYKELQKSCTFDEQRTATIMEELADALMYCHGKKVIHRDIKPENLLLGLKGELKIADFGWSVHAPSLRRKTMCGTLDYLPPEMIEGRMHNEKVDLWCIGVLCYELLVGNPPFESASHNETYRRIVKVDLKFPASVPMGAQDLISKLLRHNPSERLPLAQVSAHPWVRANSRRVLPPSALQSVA
Mitogen-activated protein kinase 1, sequence (P28482 whole entry): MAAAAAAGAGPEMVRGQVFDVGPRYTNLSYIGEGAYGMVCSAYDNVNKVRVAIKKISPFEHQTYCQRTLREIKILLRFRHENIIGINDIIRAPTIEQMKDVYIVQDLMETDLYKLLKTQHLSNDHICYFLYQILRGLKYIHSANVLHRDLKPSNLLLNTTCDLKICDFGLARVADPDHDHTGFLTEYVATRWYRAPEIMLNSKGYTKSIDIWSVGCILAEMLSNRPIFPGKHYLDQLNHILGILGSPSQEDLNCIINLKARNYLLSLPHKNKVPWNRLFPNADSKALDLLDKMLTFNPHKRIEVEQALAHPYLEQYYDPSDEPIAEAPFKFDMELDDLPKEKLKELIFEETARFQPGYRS

Cc1cn2c(-c3cn[nH]c3)cnc2c(Nc2cc([C@@H](C)N3C[C@@H](C)O[C@@H](C)C3)ns2)n1
AUC (Canis familiaris [1]): 2.2 µM·h | Vd [2]: 1.6 L/kg | half-life [3]: 3.9 h | IC50 [4]: > 10 nM | IC50 (Aurora kinase B): ≤ 13 nM | IC50 [5]: 510 nM | AUC(0-inf) [6]: 38.8 µM·h | EC50 (A2780 [7]): 19 nM | solubility [8]: 4660 µg/mL (≈ 10.6 mM) | EC50 [9]: 28 nM | bioavailability [10]: 92% | IC50 [11]: > 10 nM | clearance [12]: 10 mL/min/kg | TGI (A2780 [13]): Dose-dependent effect | AUC (Canis familiaris [14]): 3.4 µM·h | Vdss (Canis familiaris [15]): 12 L/kg | IC50 [16]: 1800 nM | AUC(0-t) at 6 h [17]: 4.6 µM·h | t1/2 (Canis familiaris [18]): 4.8 h | IC50 [19]: 140 nM | clearance [20]: 20 mL/min/kg | F (Canis familiaris [21]): 50% | IC50 (Aurora kinase A): ≤ 4 nM | Vd [22]: 1.5 L/kg | inhibition in vivo at 45 mg/kg (A2780 [23]): 41% | AUC(0-inf) [24]: 86.4 µM·h | EC50 (A2780 [25]): 20 nM | inhibition in vivo at 90 mg/kg (A2780 [26]): 79% | IC50 [27]: 330 nM | half-life [28]: 5 h | IC50 [29]: 710 nM | AUC(0-inf) [30]: 5.6 µM·h | bioavailability [31]: 72% | inhibition in vivo at 67.5 mg/kg (A2780 [32]): 67% | AUC(0-inf) [33]: 57.7 µM·h
